Reference: PubChem BioAssay (NCI)
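Assay format: 96-well plates, 48-hour exposure. TGI: total growth inhibition.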

How the values were obtained:
Assay in all cases: NCI-60 cell line screen, 48 h
PC-3 prostate = system: PC-3 prostate
A549 NSCLC = system: A549 NSCLC
NCI-H460 lung = system: NCI-H460 lung
MDA-N = system: MDA-N
NCI-H522 lung = system: NCI-H522 lung
SK-MEL-28 melanoma = system: SK-MEL-28 melanoma
HCT-116 colon = system: HCT-116 colon
HCC-2998 colon = system: HCC-2998 colon
T-47D breast = system: T-47D breast
NCI/ADR-RES ovarian = system: NCI/ADR-RES ovarian
KM12 colon = system: KM12 colon
SNB-19 CNS = system: SNB-19 CNS
RPMI-8226 leukemia = system: RPMI-8226 leukemia
K-562 leukemia = system: K-562 leukemia

SMILES	TGI (PC-3 prostate) [µM]	TGI (A549 NSCLC) [µM]	TGI (NCI-H460 lung) [µM]	TGI (MDA-N) [µM]	TGI (NCI-H522 lung) [µM]	TGI (SK-MEL-28 melanoma) [µM]	TGI (HCT-116 colon) [µM]	TGI (HCC-2998 colon) [µM]	TGI (T-47D breast) [µM]	TGI (NCI/ADR-RES ovarian) [µM]	TGI (KM12 colon) [µM]	TGI (SNB-19 CNS) [µM]	TGI (RPMI-8226 leukemia) [µM]	TGI (K-562 leukemia) [µM]
N#Cc1nc(CSCc2ccccc2)oc1N	> 100	> 100	> 100	> 100	> 100	> 100	> 100	> 100	> 100	> 100	> 100	–	–	–
CC1(C)CC(=O)/C(=C/C2CCNC2=S)C(=O)N1 (centres undefined)	> 100	> 100	> 100	> 100	> 100	> 100	> 100	> 100	> 100	> 100	> 100	> 100	> 100	> 100
CC1=NN(c2nc(N)nc(/C(C#N)=C/c3ccc([N+](=O)[O-])o3)n2)C(C)(C)C1	21.5	29.8	10.8	> 100	–	19.1	2.94	39.4	7.05	> 49.9	28.1	29.7	> 22.8	1.13
C=C[C@@H](OCOCC[Si](C)(C)C)[C@@H](CC)OC(CCCOC(=O)C(C)(C)C)OC (some centres undefined)	> 100	> 100	> 100	> 100	–	> 100	52.8	–	56.5	> 100	63	32.3	> 100	> 100
CCOc1cc(-c2nc3ccccn3c2/N=C/c2cc([N+](=O)[O-])cc([N+](=O)[O-])c2O)ccc1O	> 100	> 100	> 100	> 100	> 100	> 100	> 100	–	> 100	> 100	> 100	> 100	> 100	> 100
O[C@@]1(c2cccs2)c2cccc(Cl)c2[C@](O)(c2cccs2)c2cccc(Cl)c21	50.7	43.7	34.2	36.4	55.6	37.8	27.4	32.7	> 100	> 100	34	80.3	66.2	> 100
CC1(C)OCC2(CO1)CSCCCSCC1(COC(C)(C)OC1)CSCCCSC2	> 100	> 100	> 100	> 100	> 100	> 100	> 100	> 100	> 100	> 100	> 100	> 100	> 100	> 100
CC(NC(=O)C(OC(=O)C(C)NC(=O)OC(C)(C)C)C(C)C)C(=O)OC(C(=O)O)C(C)C (centres undefined)	> 100	> 100	> 100	> 100	> 100	> 100	–	> 100	> 100	> 100	> 100	> 100	> 100	> 100
COc1ccc(N)c(C(O)CCNC(C)=O)c1 (centres undefined)	> 100	> 100	> 100	> 100	> 100	–	> 100	–	> 100	> 100	> 100	> 100	> 100	–
N#Cc1nc(C2CC2)oc1N	> 100	> 100	–	> 100	> 100	> 100	> 100	> 100	> 100	> 100	> 100	> 100	> 100	> 100
O=C1c2cccc3cccc(c23)C(=O)N1CCCNCCCCNCCCN1C(=O)c2cccc3cccc(c23)C1=O	1.05	0.833	–	1.47	0.0803	0.938	0.668	0.568	4.32	32.3	3.66	4.35	0.179	0.337
CN1CCC(CNC(=O)CCCCCCCCC(=O)NCC2(c3ccccc3)CCN(C)CC2)(c2ccccc2)CC1	> 100	> 100	> 100	> 100	> 100	> 100	> 100	> 100	> 100	> 100	> 100	> 100	> 100	> 100
COc1cccc(/C(CC(O)(C(F)(F)F)C(F)(F)F)=N\N(C)C)c1	> 100	> 100	> 100	> 100	> 100	> 100	> 100	> 100	> 100	> 100	> 100	> 100	> 100	> 100
O=C(O)c1nc2cc(C(F)(F)F)ccc2nc1Nc1ccc(Cl)c(Cl)c1	16.1	21.8	26.3	69.2	31.4	–	21.1	–	36.8	23.2	26.2	53.5	59	> 100
COC(=O)c1ccc(Oc2nc3ccccc3nc2-c2cccs2)cc1	> 100	76.9	> 100	> 100	> 100	> 100	> 100	–	> 100	> 100	> 100	86.1	–	–
C[C@@]12c3c4ccc(C=O)c3Oc3ccc(C=O)c(c31)Oc1c(C=O)ccc(c12)O4	> 100	> 100	> 100	> 100	–	> 100	> 100	> 100	> 100	> 100	> 100	> 100	> 100	> 100
c1cc(-c2csc(-c3ccsc3)c2)cs1	> 100	> 100	> 100	> 100	–	> 100	> 100	> 100	> 100	> 100	> 100	> 100	> 100	> 100

SMILES	TGI (PC-3 prostate) [µM]	TGI (A549 NSCLC) [µM]	TGI (NCI-H460 lung) [µM]	TGI (MDA-N) [µM]	TGI (NCI-H522 lung) [µM]	TGI (SK-MEL-28 melanoma) [µM]	TGI (HCT-116 colon) [µM]	TGI (HCC-2998 colon) [µM]	TGI (T-47D breast) [µM]	TGI (NCI/ADR-RES ovarian) [µM]	TGI (KM12 colon) [µM]	TGI (SNB-19 CNS) [µM]	TGI (RPMI-8226 leukemia) [µM]	TGI (K-562 leukemia) [µM]
NC(=O)C(c1ccccc1)N1OC2C(=O)N(Cc3ccccc3)C(=O)C2C1c1cccc(Oc2ccc(Cl)cc2)c1 (centres undefined)	> 100	> 100	90.1	49.7	> 100	> 100	44.5	–	> 100	> 100	> 100	> 100	–	99.5
CN(C)/C(N)=N/C(N)=Nc1cccc(Cl)c1	> 100	> 100	> 100	> 100	–	> 100	> 100	> 100	77.2	> 100	> 100	> 100	> 100	> 100
CCCCC1Cc2ccccc2-c2n1c1ccccc1[n+]2C (centres undefined)	43	–	> 100	64.5	27.9	91	> 100	48.3	7.3	> 100	> 100	–	14	> 100
Cc1cccc2[nH]c3cc(O)cc(O)c3c(=O)c12	> 10	> 10	> 10	> 10	> 10	> 10	> 10	–	> 10	> 10	> 10	> 10	> 10	> 10
O=c1[nH]c(=O)n(C2CC(O)C(CO)O2)cc1OCCc1ccccc1 (centres undefined)	> 100	> 100	–	> 100	> 100	> 100	> 100	–	> 100	> 100	> 100	> 100	> 100	> 100
CSc1c(C#N)c(O)n(-c2ccc(C)cc2)c(=O)c1C#N	> 100	> 100	> 100	> 100	> 100	> 100	> 100	> 100	> 100	> 100	> 100	> 100	> 100	> 100
O=C1CSC(/C=C/c2ccccc2)N1c1ccc(-c2ccc(-n3c(-c4ccccc4)nc4ccccc4c3=O)cc2)cc1 (centres undefined)	65.3	68	> 100	67.9	42.9	53.3	–	> 100	> 100	> 100	35.8	62.3	> 100	> 100
Cc1cc(C)nc(NS(=O)(=O)c2ccc(NN=c3c4ccccc4n(C)c4ccccc34)cc2)n1	> 100	> 100	> 100	59.6	61.5	67.7	> 100	89.8	80.8	> 100	> 100	> 100	> 100	66.2
COC(=O)/C=C/c1cnc2c(c1)oc(=O)n2CCc1ccccn1	> 100	> 100	> 100	> 100	–	> 100	> 100	> 100	> 100	> 100	> 100	> 100	> 100	> 100
O=C(O)CN=C(C(=NCC(=O)O)c1ccccc1)c1ccccc1	> 100	> 100	> 100	> 100	> 100	> 100	> 100	> 100	> 100	> 100	> 100	> 100	> 100	> 100
Oc1[nH]c2ccccc2c1N=NC(=S)N1CCCCC1	10.3	3.44	2.29	15.5	15.5	12.2	1.54	8.87	20	0.635	1.62	12.5	2.43	–
O=C(c1ccco1)C1CC(c2ccc3ccccc3c2O)=NN1 (centres undefined)	> 100	> 100	> 100	> 100	> 100	> 100	> 100	> 100	> 100	> 100	> 100	–	> 100	> 100
Oc1ccc(Cl)cc1-c1[nH]c(=S)nc(-c2ccccc2)c1Cl	> 100	> 100	> 100	> 100	> 31.6	> 100	> 100	–	> 100	> 100	> 100	> 100	> 100	> 100
COC(=O)CCC1(C)C2CCC1(C)/C(=N/O)C2 (centres undefined)	> 100	> 100	–	> 100	> 100	> 100	> 100	> 100	> 100	> 100	> 100	> 100	> 100	> 100
C=C(C)C#CC(O)(C(=O)OC1CCN(C)CC1)C(C)C (centres undefined)	> 100	> 100	–	> 100	> 100	> 100	> 100	> 100	> 100	85.6	> 100	> 100	> 100	> 100
Nc1nc(N)c(C2=CCN(Cc3ccccc3)CC2)c(=O)[nH]1	> 100	> 100	> 100	> 100	> 100	> 100	> 100	–	> 100	> 100	> 100	> 100	> 100	> 100
Cc1cccc(-n2c(C)nc3ccc(NC4OC(CO)C(O)C(O)C4O)cc3c2=O)c1 (centres undefined)	> 100	–	> 100	> 100	> 100	> 100	> 100	> 100	> 100	> 100	> 100	> 100	> 100	> 100
